The source of these data is patent US10144729B2, “Isoxazole analogs as FXR agonists and methods of use thereof” (Enanta Pharmaceuticals, Inc., priority 2016, dated 2018).

The test deals with human FXR (NR1H4) (Homo sapiens (Human), UniProt Q96RI1). Kind of test: Human FXR (NR1H4) Assay (Gal4 promoter driven luciferase reporter, CHO cells). The test is classed as cell-based. Conditions: for Efficacy (%): FXR reporter assay in CHO cells, efficacy normalized to CDCA set as 100%. From the text:
Human FXR (NR1H4) Assay Determination of a ligand mediated Gal4 promoter driven transactivation to quantify ligand binding mediated activation of FXR. […] The principle application of this reporter assay system is to quantify functional activity of human FXR. The assay utilizes non-human mammalian cells, CHO (Chinese hamster ovary) cells engineered to express human NR1H4 protein (referred to as FXR). Reporter cells also incorporate the cDNA encoding beetle luciferase which catalyzes the substrates and yields photon emission. Luminescence intensity of the reaction is quantified using a plate-reading luminometer, Envision. Reporter Cells include the luciferase reporter gene functionally linked to an FXR responsive promoter. Thus, quantifying changes in luciferase expression in the treated reporter cells provides a sensitive surrogate measure of the changes in FXR activity. […] The assay is according to the manufacturer's instructions. […] Retrieve Reporter Cells from −80° C. storage. Perform a rapid thaw of the frozen cells by transferring a 10 ml volume of 37° C. cell recovery medium into the tube of frozen cells. Recap the tube of Reporter Cells and immediately place it in a 37° C. water bath for 5-10 minutes. Retrieve the tube of Reporter Cell Suspension from the water bath. Sanitize the outside surface of the tube with a 70% alcohol swab, and then transfer it into the cell culture hood. Dispense 90 μl of cell suspension into each well of the 96-well Assay Plate. Transfer the plate into 37° C. incubator, allowing the cells adherent to the bottom of the well. Dilute compounds in Dilution Plate (DP), and administrate to cells at Assay Plate (AP). DMSO content of the samples was kept at 0.2%. Cells were incubated for additional 22 hours before luciferase activities were measured. Thirty minutes before intending to quantify FXR activity, remove Detection Substrate and Detection Buffer from the refrigerator and place them in a low-light area so that they may equilibrate to room temperature. Remove the plate's lid and discard all media contents by ejecting it into an appropriate waste container. Gently tap the inverted plate onto a clean absorbent paper towel to remove residual droplets. Cells will remain tightly adhered to well bottoms. Add 100 μl of luciferase detection reagent to each well of the assay plate. Allow the assay plate to rest at room temperature for at least 5 minutes following the addition of LDR. Set the instrument (Envision) to perform a single 5 second “plate shake” prior to reading the first assay well. Read time may be 0.5 second (500 mSec) per well.

human FXR (NR1H4), sequence (Q96RI1 whole entry, the tested form may be a part): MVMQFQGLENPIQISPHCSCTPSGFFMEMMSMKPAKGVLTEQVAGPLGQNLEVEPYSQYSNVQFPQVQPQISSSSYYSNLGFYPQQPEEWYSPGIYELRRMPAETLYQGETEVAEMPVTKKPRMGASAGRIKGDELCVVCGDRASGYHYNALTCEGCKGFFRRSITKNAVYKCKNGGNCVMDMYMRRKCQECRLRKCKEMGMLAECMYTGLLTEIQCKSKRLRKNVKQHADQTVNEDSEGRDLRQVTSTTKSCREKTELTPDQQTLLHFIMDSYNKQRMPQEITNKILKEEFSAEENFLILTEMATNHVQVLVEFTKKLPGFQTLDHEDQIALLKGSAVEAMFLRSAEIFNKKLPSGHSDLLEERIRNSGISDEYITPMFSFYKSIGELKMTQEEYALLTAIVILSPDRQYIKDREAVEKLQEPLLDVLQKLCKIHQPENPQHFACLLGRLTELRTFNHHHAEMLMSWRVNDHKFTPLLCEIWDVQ

By EC50 is commonly meant the concentration giving half of the maximal effect. Read a high EC50 as a less potent agent. Take `CN(C)S(=O)(=O)NC(=O)c1ccc([C@@H]2C[C@H]2c2ccc(OCc3c(-c4c(Cl)cccc4Cl)noc3C3CC3)cc2Cl)cc1` [Example 1a]: the EC50 lay within 100 to 1000 nM and the “Efficacy (%)” value was 271%.

Regarding `CN(C)S(=O)(=O)NC(=O)Nc1ccc([C@@H]2C[C@H]2c2ccc(OCc3c(-c4c(Cl)cccc4Cl)noc3C3CC3)cc2Cl)cc1` [Example 1b], the EC50 lay in the range of 1000 to 10000 nM and the “Efficacy (%)” value stood at 194%.

Regarding `CC(C)(C)c1ccc(S(=O)(=O)NC(=O)c2ccc([C@@H]3C[C@H]3c3ccc(OCc4c(-c5c(Cl)cccc5Cl)noc4C4CC4)cc3Cl)cc2)cc1` [Example 2a], the EC50 lay in the range of 1000 to 10000 nM and the “Efficacy (%)” value was 115%.

Regarding `O=C(NS(=O)(=O)C1CC1)c1ccc([C@@H]2C[C@H]2c2ccc(OCc3c(-c4c(Cl)cccc4Cl)noc3C3CC3)cc2Cl)cc1` [Example 2c], the EC50 fell in the range of 100 to 1000 nM and the “Efficacy (%)” value was found to be 209%.

As for `CC(C)(C)c1ccc(S(=O)(=O)NC(=O)Nc2ccc([C@@H]3C[C@H]3c3ccc(OCc4c(-c5c(Cl)cccc5Cl)noc4C4CC4)cc3Cl)cc2)cc1` [Example 2d], the EC50 was 100 to 1000 nM and the “Efficacy (%)” value came to 236%.
